# Several values for one entry are separate records, joined by “and”; a condition that tells them apart may be missing. Equal entries are not always repeated. Activity calls are given as the source filed them. The calls are words filed in the database; no cut-off is given here.
# Legend:
# [1] = Drug metabolism in Sprague-Dawley rat assessed as retention time by HPLC/MS analysis; format: ADME
# [2] = test system: Mus musculus; test: Anticonvulsant activity in Kunming mouse assessed as MES-induced hind limb extension at 100 mg/kg, ip administered 0. 5 to 2 hrs before MES stimulation; format: functional, organism-based
# [3] = Neurotoxicity against Kunming mouse assessed as time remained in rod at 100 mg/kg, ip administered 0.5 to 2 hrs by rotarod test; format: toxicity, organism-based; conditions: in vivo
# [4] = species on record: Homo sapiens; test: Inhibition of human LDH5 at 0.5 mM using sodium pyruvate as substrate by UV-VIS spectrophotometry method relative to control
# [5] = species on record: Homo sapiens; test: Inhibition of human LDH1 at 0.5 mM using sodium pyruvate as substrate by UV-VIS spectrophotometry method relative to control
# [6] = test system: Mus musculus; test: Anticonvulsant activity in Kunming mouse assessed as MES-induced hind limb extension at 100 mg/kg, ip administered 0. 5 to 4 hrs before MES stimulation relative to control; format: functional
# [7] = test system: Mus musculus; test: Anticonvulsant activity in Kunming mouse assessed as MES-induced hind limb extension at 100 mg/kg, ip administered 3 hrs before MES stimulation; format: functional, organism-based
# [8] = test system: Mus musculus; test: Anticonvulsant activity in Kunming mouse assessed as reduction in ScPTZ-induced seizure at 100 mg/kg, ip administered 0.25 to 2 hrs before ScPTZ stimulation relative to control; format: functional
# [9] = test system: Mus musculus; test: Anticonvulsant activity in Kunming mouse assessed as reduction in ScPTZ-induced seizure at 100 mg/kg, ip administered 0.25 and 1 hrs before ScPTZ stimulation relative to control; format: functional; set-up: scale not given: the % may be the effect or the level left
# [10] = test system: Mus musculus; test: Anticonvulsant activity in Kunming mouse assessed as reduction in ScPTZ-induced tonic seizure rate at 100 mg/kg, ip administered 0.5 hrs before ScPTZ stimulation relative to control; format: functional; set-up: scale not given: the % may be the effect or the level left
# [11] = test system: Mus musculus; test: Anticonvulsant activity in Kunming mouse assessed as reduction in ScPTZ-induced mortality rate at 300 mg/kg, ip administered 0.5 hrs before ScPTZ stimulation relative to control; format: functional; set-up: scale not given: the % may be the effect or the level left
# [12] = Protective index, ratio of TD50 for neurotoxicity against ip dosed Kunming mouse assessed as time remained in rod measured at 0.5 hrs by rotarod test to ED50 for anticonvulsant activity in ip dosed Kunming mouse assessed as MES-induced hind limb extension administered 0.5 hrs; format: toxicity, organism-based; conditions: in vivo, read-out: PI
# [13] = test system: Mus musculus; test: Anticonvulsant activity in ip dosed Kunming mouse assessed as MES-induced hind limb extension administered 0.5 hrs before MES stimulation; format: functional
# [14] = test system: Mus musculus; test: Anticonvulsant activity in Kunming mouse assessed as reduction in ScPTZ-induced clonic seizure at 300 mg/kg, ip administered 0.5 hrs before ScPTZ stimulation relative to control; format: functional; set-up: scale not given: the % may be the effect or the level left
# [15] = (§1) Protective index, ratio of TD50 for neurotoxicity against ip dosed Kunming mouse assessed as time remained in rod measured at 0.5 hrs by rotarod test to ED50 for anticonvulsant activity in ip dosed Kunming mouse assessed as reduction in Sc3-MP-induced seizure administered 0.5 hrs before Sc3-MP stimulation; format: toxicity, organism-based; conditions: in vivo, read-out: PI
# [16] = test system: Mus musculus; test: Anticonvulsant activity in Kunming mouse assessed as reduction in ScPTZ-induced clonic seizure at 100 mg/kg, ip administered 0.5 hrs before ScPTZ stimulation relative to control; format: functional; set-up: scale not given: the % may be the effect or the level left
# [17] = test system: Mus musculus; test: Anticonvulsant activity in Kunming mouse assessed as reduction in Sc3-MP-induced clonic seizure rate at 300 mg/kg, ip administered 0.5 hrs before Sc3-MP stimulation relative to control; format: functional; set-up: scale not given: the % may be the effect or the level left
# [18] = Neurotoxicity against ip dosed Kunming mouse assessed as time remained in rod measured at 0.5 hrs by rotarod test; format: toxicity, organism-based; conditions: in vivo
# [19] = test system: Mus musculus; test: Anticonvulsant activity in Kunming mouse assessed as reduction in ScPTZ-induced seizure at 300 mg/kg, ip administered 0.25 to 2 hrs before ScPTZ stimulation relative to control; format: functional; set-up: scale not given: the % may be the effect or the level left
# [20] = test system: Mus musculus; test: Anticonvulsant activity in Kunming mouse assessed as reduction in ScPTZ-induced tonic seizure rate at 300 mg/kg, ip administered 0.5 hrs before ScPTZ stimulation relative to control; format: functional; set-up: scale not given: the % may be the effect or the level left
# [21] = as §1, with “ScPTZ-induced” for “Sc3-MP-induced”, “ScPTZ” for “Sc3-MP”; format: toxicity, organism-based; conditions: in vivo, read-out: PI
# [22] = test system: Mus musculus; test: […] activity in ip dosed Kunming mouse assessed as reduction in formalin-induced paw licking administered 0.5 hrs before formalin stimulation; format: functional
# [23] = test system: Mus musculus; test: Anticonvulsant activity in Kunming mouse assessed as reduction in Sc3-MP-induced tonic seizure rate at 300 mg/kg, ip administered 0.5 hrs before Sc3-MP stimulation relative to control; format: functional; set-up: scale not given: the % may be the effect or the level left
# [24] = test system: Mus musculus; test: Anticonvulsant activity in Kunming mouse assessed as reduction in Sc3-MP-induced seizure ip dosed measured at 0.5 hrs before Sc3-MP stimulation; format: functional
# [25] = as §1, with “formalin-induced paw licking” for “Sc3-MP-induced seizure”, “formalin” for “Sc3-MP”; format: toxicity, organism-based; conditions: in vivo, read-out: PI
# [26] = test system: Mus musculus; test: Anticonvulsant activity in ip dosed Kunming mouse assessed as reduction in ScPTZ-induced seizure administered 0.5 hrs before ScPTZ stimulation; format: functional
# [27] = test system: Mus musculus; test: Anticonvulsant activity in Kunming mouse assessed as MES-induced hind limb extension at 50 mg/kg, ip administered 0.5 to 4 hrs before MES stimulation relative to control; format: functional
# [28] = test system: Mus musculus; test: Anticonvulsant activity in Kunming mouse assessed as MES-induced hind limb extension at 50 mg/kg, ip administered 0.5 and 2 hrs before MES stimulation relative to control; format: functional
structure (smiles),measurement,setting,value
COc1cc(OC)c(OC)cc1/C=C/C(=O)O,Retention_time,[1],79.8 min
COc1cc(OC)c(OC)c(OC)c1/C=C/C(=O)O[C@@H]1O[C@H](C(=O)O)[C@@H](O)[C@H](O)[C@H]1O,Retention_time,[1],55.2 min
COc1cc(OC)c(OC)cc1/C=C/COC(=O)/C=C/c1ccccc1Br,Activity,[2],Active
same,Activity,[3],Non-Toxic
same,inhibition,[4],< 9%
same,inhibition,[5],< 5%
same,Activity,[6],inactive
COc1cc(OC)c(OC)cc1/C=C/COC(=O)/C=C/c1c(OC)cccc1OC,Activity,[2],Active
same,Activity,[3],Non-Toxic
same,inhibition,[4],inactive
same,Activity,[7],Active
same,inhibition,[5],inactive
same,Activity,[6],25 - 100%
COc1cc(OC)c(OC)cc1CCCNC(=O)/C=C/c1cc(OC)c(OC)c(OC)c1,Activity,[2],Active
same,Activity,[3],Non-Toxic
same,inhibition,[4],9%
same,inhibition,[5],< 5%
same,Activity,[6],25 - 100%
COc1cc(OC)c(OC)cc1/C=C/COC(=O)/C=C/c1ccc(Br)cc1,Activity,[8],inactive
same,Activity,[9],75%
same,Activity,[2],Active
same,Activity,[10],100%
same,Activity,[11],0%
same,selectivity ratio at 0.5 h,[12],17.1
same,ED50,[13],61.8 mg/kg and 143 µmol/kg
same,Activity,[14],100%
same,selectivity ratio at 0.5 h,[15],5
same,Activity,[16],100%
same,Activity,[17],100%
same,TD50 at 0.5 h,[18],2440 µmol/kg and 1060 mg/kg
same,Activity,[3],Non-Toxic
same,Activity,[19],50%
same,Activity,[20],25%
same,selectivity ratio at 0.5 h,[21],5.5
same,inhibition,[4],< 9%
same,Activity,[7],Active
same,inhibition,[5],< 5%
same,ED50,[22],105 mg/kg and 243 µmol/kg
same,Activity,[23],75%
same,ED50,[24],> 300 mg/kg and > 692 µmol/kg
same,selectivity ratio at 0.5 h,[25],10.1
same,Activity,[6],25 - 100%
same,ED50,[26],446 µmol/kg and 193 mg/kg
same,Activity,[27],50%
COc1cc(OC)c(OC)c(OC)c1/C=C/C(=O)O,Retention_time,[1],81.4 min
COc1cc(OC)c(OC)cc1/C=C/COC(=O)/C=C/c1ccc(C(F)(F)F)cc1,Activity,[2],Active
same,Activity,[3],Non-Toxic
same,inhibition,[4],< 9%
same,inhibition,[5],< 5%
same,Activity,[6],25 - 100%
COc1cc(OC)c(OC)cc1/C=C/CNC(=O)/C=C/c1cc(OC)c(OC)c(OC)c1,Activity,[2],Active
same,Activity,[3],Non-Toxic
same,inhibition,[4],9%
same,inhibition,[5],< 5%
same,Activity,[6],25 - 100%
COc1ccc(/C=C/C(=O)OC/C=C/c2cc(OC)c(OC)cc2OC)c(OC)c1,Activity,[2],Active
same,Activity,[3],Non-Toxic
same,inhibition,[4],inactive
same,inhibition,[5],inactive
same,Activity,[6],25 - 100%
COc1cc(OC)c(OC)cc1/C=C/COC(=O)/C=C/c1ccccc1C(F)(F)F,Activity,[8],inactive
same,Activity,[2],Active
same,Activity,[10],100%
same,Activity,[11],0%
same,selectivity ratio at 0.5 h,[12],> 11.7
same,ED50,[13],85.7 mg/kg and 203 µmol/kg
same,Activity,[14],100%
same,Activity,[28],inactive
same,selectivity ratio at 0.5 h,[15],3.3
same,Activity,[16],100%
same,Activity,[17],100%
same,TD50 at 0.5 h,[18],> 2370 µmol/kg and > 1000 mg/kg
same,Activity,[3],Non-Toxic
same,Activity,[19],50%
same,Activity,[20],50%
same,selectivity ratio at 0.5 h,[21],5
same,inhibition,[4],< 9%
same,Activity,[7],Active
same,inhibition,[5],< 5%
same,ED50,[22],123 mg/kg and 291 µmol/kg
same,Activity,[23],75%
same,ED50,[24],> 300 mg/kg and > 710 µmol/kg
same,selectivity ratio at 0.5 h,[25],> 8.1
same,Activity,[6],25 - 100%
same,ED50,[26],> 200 mg/kg and > 474 µmol/kg
COc1cc(OC)c(OC)cc1/C=C/COC(=O)/C=C/c1cccc(C(F)(F)F)c1,Activity,[2],Active
same,Activity,[3],Non-Toxic
same,inhibition,[4],< 9%
same,inhibition,[5],< 5%
same,Activity,[6],inactive
COc1cc(OC)c(OC)cc1/C=C/C(=O)O[C@@H]1O[C@H](C(=O)O)[C@@H](O)[C@H](O)[C@H]1O,Retention_time,[1],50.1 min

# — ChEMBL document CHEMBL4311969, “Polygala tenuifolia-Acori tatarinowii herbal pair as an inspiration for substituted cinnamic α-asaronol esters: Design, synthesis, anticonvulsant activity, and inhibition of lactate dehydrogenase study” (Eur J Med Chem, 2019)
